Measurements as given in PubChem BioAssay AID256 (DTP/NCI, 2004).
Values joined by “and” are separate entries in the source; they are usually repeats but may differ in a detail not shown here. Equal values may be shown once. Inconclusive results and toxic doses are left out. The calls were made as follows: active = survival T/C of 150% or more; inactive = T/C below 125% in these data.

Tested on: CD2F1 mice, L1210 leukemia ip, survival T/C
Experiment: NCI In Vivo Anticancer Drug Screen. Data for tumor model L1210 Leukemia (intraperitoneal) in CD2F1 (CDF1) mice
Conditions: higher = longer survival
How it was run: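 Mice carrying a transplanted tumor received test compound or vehicle alone. The value is the measurement in the treated group divided by that in the vehicle-treated control group.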

[1] = endpoint: mean survival time, dose: 12.5 mg/kg/injection, schedule: Q01DX009 (ip), vehicle: saline with Tween-80
[2] = endpoint: mean survival time, dose: 25.0 mg/kg/injection, schedule: Q01DX009 (ip), vehicle: saline with Tween-80
[3] = endpoint: mean survival time, dose: 50.0 mg/kg/injection, schedule: Q01DX009 (ip), vehicle: saline with Tween-80
[4] = endpoint: mean survival time, dose: 100.0 mg/kg/injection, schedule: Q01DX009 (ip), vehicle: saline with Tween-80
[5] = endpoint: mean survival time, dose: 100.0 mg/kg/injection, schedule: Q01DX001 (ip), vehicle: saline with Tween-80
[6] = endpoint: mean survival time, dose: 200.0 mg/kg/injection, schedule: Q01DX001 (ip), vehicle: saline with Tween-80
[7] = endpoint: mean survival time, dose: 400.0 mg/kg/injection, schedule: Q01DX001 (ip), vehicle: saline with Tween-80
[8] = endpoint: mean survival time, dose: 100.0 mg/kg/injection, schedule: Q04DX003 (ip), vehicle: saline with Tween-80
[9] = endpoint: mean survival time, dose: 200.0 mg/kg/injection, schedule: Q04DX003 (ip), vehicle: saline with Tween-80
[10] = endpoint: mean survival time, dose: 200.0 mg/kg/injection, schedule: Q01DX009 (ip), vehicle: saline with Tween-80
[11] = endpoint: mean survival time, dose: 400.0 mg/kg/injection, schedule: Q01DX009 (ip), vehicle: saline with Tween-80

Measured: T/C

CN=S(=O)(OCCCCCOS(=O)(=NC)c1ccccc1)c1ccccc1 (stereo not given)
inactive: [1] 103 % of control | [2] 106 % of control | [3] 103 % of control | [4] 106 % of control

O=C(Nc1cccc2ccccc12)c1ccccc1
inactive: [5] 95 % of control | [6] 95 % of control | [7] 92 % of control

CCC[CH2][Sn]([CH2]CCC)([CH2]CCC)[CH2]CC(=O)OC
inactive: [8] 101 % of control | [9] 95 % of control

O=C(Nc1cccc2c(OC(=O)C(Cl)Cl)c(N=Nc3ccc(S(=O)(=O)Nc4nccs4)cc3)cc(N=Nc3ccc(S(=O)(=O)Nc4nccs4)cc3)c12)C(Cl)Cl (tested in a mixture with another compound)
inactive: endpoint: mean survival time, dose: 3.12 mg/kg/injection, schedule: Q01DX009 (ip), vehicle: saline with Tween-80 96 % of control and 101 % of control | endpoint: mean survival time, dose: 6.25 mg/kg/injection, schedule: Q01DX009 (ip), vehicle: saline with Tween-80 95 % of control and 101 % of control | [1] 96 % of control and 102 % of control | [2] 101 % of control and 106 % of control | [3] 101 % of control and 110 % of control | [4] 113 % of control and 112 % of control | endpoint: median survival time, dose: 100.0 mg/kg/injection, schedule: Q01DX009 (ip), vehicle: saline with Tween-80 113 % of control | endpoint: median survival time, dose: 200.0 mg/kg/injection, schedule: Q01DX009 (ip), vehicle: saline with Tween-80 106 % of control | endpoint: median survival time, dose: 400.0 mg/kg/injection, schedule: Q01DX009 (ip), vehicle: saline with Tween-80 100 % of control

CC(C)C1=CC2=CCC3C(C)(C(=O)O)CCCC3(C)C2CC1 (stereo not given)
inactive: [2] 103 % of control | [3] 98 % of control | [5] 98 % of control | [4] 96 % of control | [6] 95 % of control | [10] 96 % of control | [7] 102 % of control | [11] 97 % of control

CC(O)C[As](=O)(O)c1ccccc1Cl (stereo not given)
inactive: endpoint: mean survival time, dose: 6.25 mg/kg/injection, schedule: Q04DX003 (ip), vehicle: saline 107 % of control | endpoint: mean survival time, dose: 12.5 mg/kg/injection, schedule: Q04DX003 (ip), vehicle: saline 107 % of control

N#CSCc1cc(=O)c(O)co1
inactive: endpoint: mean survival time, dose: 6.25 mg/kg/injection, schedule: Q04DX003 (ip), vehicle: saline with Tween-80 104 % of control | endpoint: mean survival time, dose: 12.5 mg/kg/injection, schedule: Q04DX003 (ip), vehicle: saline with Tween-80 94 % of control

CC(=O)CC(=O)c1ccccc1.CC(=O)CC(=O)c1ccccc1.CC(=O)CC(=O)c1ccccc1.[Cr]
inactive: endpoint: median survival time, dose: 50.0 mg/kg/injection, schedule: Q04DX002 (ip), vehicle: saline with Tween-80 88 % of control | endpoint: median survival time, dose: 100.0 mg/kg/injection, schedule: Q04DX002 (ip), vehicle: saline with Tween-80 88 % of control | endpoint: median survival time, dose: 200.0 mg/kg/injection, schedule: Q04DX002 (ip), vehicle: saline with Tween-80 88 % of control | endpoint: median survival time, dose: 400.0 mg/kg/injection, schedule: Q04DX002 (ip), vehicle: saline with Tween-80 88 % of control

CNC(C1CCCCC1)C(C)OC(=O)c1ccc(N)cc1 (stereo not given)
inactive: endpoint: mean survival time, dose: 75.0 mg/kg/injection, schedule: Q01DX001 (ip), vehicle: saline 100 % of control

CCCCOCN(COCCCC)C(C)Cc1ccccc1 (stereo not given)
inactive: [1] 94 % of control and 97 % of control | [2] 97 % of control and 102 % of control | [3] 93 % of control and 102 % of control | [4] 114 % of control and 95 % of control | [10] 123 % of control and 112 % of control

O=C(O)C(=O)O.O=C(O)C(=O)O.OO.OO.[Nb]
inactive: endpoint: mean survival time, dose: 12.5 mg/kg/injection, schedule: Q01DX009 (ip), vehicle: water 93 % of control | endpoint: mean survival time, dose: 25.0 mg/kg/injection, schedule: Q01DX009 (ip), vehicle: water 98 % of control | endpoint: mean survival time, dose: 50.0 mg/kg/injection, schedule: Q01DX009 (ip), vehicle: water 87 % of control

O=NN(CCCl)C(=O)/N=N/C(=O)N(CCCl)N=O
inactive: endpoint: median survival time, dose: 3.12 mg/kg/injection, schedule: Q01DX001 (ip), vehicle: water 100 % of control | endpoint: median survival time, dose: 6.25 mg/kg/injection, schedule: Q01DX001 (ip), vehicle: water 98 % of control | endpoint: median survival time, dose: 12.5 mg/kg/injection, schedule: Q01DX001 (ip), vehicle: water 113 % of control | endpoint: median survival time, dose: 25.0 mg/kg/injection, schedule: Q01DX001 (ip), vehicle: water 103 % of control and 105 % of control | endpoint: median survival time, dose: 50.0 mg/kg/injection, schedule: Q01DX001 (ip), vehicle: water 98 % of control and 112 % of control | endpoint: median survival time, dose: 100.0 mg/kg/injection, schedule: Q01DX001 (ip), vehicle: water 115 % of control (2×) and 122 % of control

Brc1ccc2ncc3ccccc3c2c1
inactive: endpoint: mean survival time, dose: 100.0 mg/kg/injection, schedule: Q01DX001 (ip), vehicle: saline 93 % of control | endpoint: mean survival time, dose: 200.0 mg/kg/injection, schedule: Q01DX001 (ip), vehicle: saline 98 % of control | endpoint: mean survival time, dose: 400.0 mg/kg/injection, schedule: Q01DX001 (ip), vehicle: saline 96 % of control

CCC(C=O)Cc1ccccc1 (stereo not given)
inactive: [8] 95 % of control | [9] 94 % of control | endpoint: mean survival time, dose: 400.0 mg/kg/injection, schedule: Q04DX003 (ip), vehicle: saline with Tween-80 88 % of control

O=S(O)C(=NC1CCCCC1)NC1CCCCC1
inactive: [4] 90 % of control | [10] 90 % of control | [11] 105 % of control

O=C(O)c1cc(F)c(F)c(F)c1F
inactive: [1] 91 % of control | [2] 97 % of control | endpoint: mean survival time, dose: 25.0 mg/kg/injection, schedule: Q04DX003 (ip), vehicle: saline with Tween-80 96 % of control | [3] 103 % of control | endpoint: mean survival time, dose: 50.0 mg/kg/injection, schedule: Q04DX003 (ip), vehicle: saline with Tween-80 94 % of control

N#CCN(CC#N)CC#N
inactive: endpoint: mean survival time, dose: 1.56 mg/kg/injection, schedule: Q01DX009 (ip), vehicle: saline 97 % of control | endpoint: mean survival time, dose: 3.13 mg/kg/injection, schedule: Q01DX009 (ip), vehicle: saline 92 % of control | endpoint: mean survival time, dose: 6.25 mg/kg/injection, schedule: Q01DX009 (ip), vehicle: saline 100 % of control

CN(C)c1ccc(/C=N/NC(=O)c2ccccc2NC(=O)c2ccccc2Cl)cc1
inactive: endpoint: mean survival time, dose: 50.0 mg/kg/injection, schedule: Q01DX009 (ip), vehicle: Klucel (hydroxypropylcellulose) (HPC) 87 % of control | endpoint: mean survival time, dose: 100.0 mg/kg/injection, schedule: Q01DX009 (ip), vehicle: Klucel (hydroxypropylcellulose) (HPC) 94 % of control | endpoint: mean survival time, dose: 200.0 mg/kg/injection, schedule: Q01DX009 (ip), vehicle: Klucel (hydroxypropylcellulose) (HPC) 91 % of control

O=C(O)CCC(=O)c1ccc2c(c1)CCCC2
inactive: endpoint: mean survival time, dose: 1.56 mg/kg/injection, schedule: Q04DX002 (ip), vehicle: saline with Tween-80 97 % of control | endpoint: mean survival time, dose: 3.13 mg/kg/injection, schedule: Q04DX002 (ip), vehicle: saline with Tween-80 97 % of control | endpoint: mean survival time, dose: 6.25 mg/kg/injection, schedule: Q04DX002 (ip), vehicle: saline with Tween-80 97 % of control | endpoint: mean survival time, dose: 12.5 mg/kg/injection, schedule: Q04DX002 (ip), vehicle: saline with Tween-80 104 % of control

CCCCC(CC)COP(=O)(CC(CC)CCCC)OCC(CC)CCCC (stereo not given)
inactive: endpoint: mean survival time, dose: 100.0 mg/kg/injection, schedule: Q04DX003 (ip), vehicle: saline 86 % of control | endpoint: mean survival time, dose: 200.0 mg/kg/injection, schedule: Q04DX003 (ip), vehicle: saline 94 % of control

COc1cc2c(cc1OC)-c1cc3cc(OC)c(OC)cc3c(C)[n+]1CC2 (tested in a mixture with another compound)
inactive: endpoint: mean survival time, dose: 100.0 mg/kg/injection, schedule: Q04DX003 (ip), vehicle: saline sonified 103 % of control

N#CC1(Nc2ccccc2)CCCCC1
inactive: endpoint: mean survival time, dose: 50.0 mg/kg/injection, schedule: Q01DX009 (ip), vehicle: other 95 % of control | endpoint: mean survival time, dose: 100.0 mg/kg/injection, schedule: Q01DX009 (ip), vehicle: other 102 % of control | [8] 97 % of control | [9] 100 % of control
